What all share (assay): NCI tumour cell line growth inhibition, 48 h
Assay [1] has as its system 786-0 renal.
The test system of assay [2] is CAKI-1 renal.
Assay [3] deals with HT29 colon.
For assay [4], the system named is OVCAR-8 ovarian.
Assay [5] deals with SF-295 CNS.
Assay [6] has as its system SF-539 CNS.
Assay [7] deals with SW-620 colon.
The test system of assay [8] is TK-10 renal.
For assay [9], the system named is UACC-257 melanoma.
In assay [10] the test system is COLO 205 colon.

Values joined by “and” are separate entries in the source; they are usually repeats but may differ in a detail not shown here. Identical values can stand only once.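 Each compound was tested at five concentrations against cells in 96-well plates for 48 hours. The concentration for 50% growth inhibition is given as GI50. TGI denotes the concentration required for complete inhibition of growth.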

As to `Cc1nc(C(N)=S)sc1C(=O)C/C(=N/N)C(=O)Nc1cccc(Cl)c1C`, the TGI in assay [1], in [2], in assay [3], in assay [4], in [5] and in [6] was greater than 100 µM in each case. The TGI in assay [7], in assay [8] and in assay [9] was greater than 100 µM each time.

Take `CCOc1c(Cl)cc(CNC(C)C(O)c2ccccc2)cc1OC` (stereo not drawn): the GI50 is 16.1 µM in assay [1]; 15.1 µM in assay [2]; 19 µM in assay [10]; 18.6 µM in assay [3]; 19.8 µM in assay [4]; 16.4 µM in assay [5]. Besides, the GI50 in [6] was 16.8 µM; in assay [7], 22.8 µM; in assay [8] it was 31.7 µM; in assay [9], 19.1 µM. The TGI in assay [1] stood at 38.9 µM; in [2], 54.7 µM; in assay [10] it was 35.9 µM; in assay [3], 45.5 µM; in [4], 48 µM; in assay [5], 34.6 µM. The TGI in assay [6] was 34 µM; in assay [7] it was 58.1 µM; in assay [8], greater than 100 µM; in [9], 43.1 µM.

For `S=c1nc(-c2cccnc2)[nH][nH]1`, the TGI is greater than 100 µM in assay [1]; greater than 1 µM in assay [2]; greater than 100 µM in assay [10]; greater than 100 µM in assay [3]; greater than 100 µM in [5]; greater than 100 µM in assay [7]. The TGI in assay [8] and in assay [9] was greater than 100 µM each time.

On to `C=C(C=O)CCCC(C)[C@@H]1CCC23CC12CCC1[C@@]2(C)CCC(OC(C)=O)C(C)(C)C2CC(OC2OC(COC(C)=O)C(O)C(O)C2O)[C@]13C` (stereo partly drawn), for which the TGI in assay [1] worked out at 13.2 µM; in assay [2], 10.9 µM; in assay [10] it was 14.4 µM; in assay [3], 11.9 µM; in assay [4], 11.1 µM; in [5], 11.6 µM. Moreover, the TGI in [6] turned out to be 11.4 µM; in [7], 1.44 µM; in [8], 12.5 µM; in [9], 11.6 µM.

For the molecule `c1cc(CNC2C3CCC(C3)C2c2c[nH]c3ccccc23)cc(CNC2C3CCC(C3)C2c2c[nH]c3ccccc23)c1` (stereo not drawn), the GI50 in [1] was 14.2 µM; in assay [10], 1.54 µM; in [3], 0.331 µM and 0.154 µM; in assay [6] it was 1.89 µM and 1.74 µM; in [7], 2.11 µM and 0.386 µM; in assay [9], 2 µM. The TGI in assay [1] is 27.3 µM; in [10], 3.03 µM; in assay [6], 3.39 µM and 3.17 µM; in assay [7] it was greater than 100 µM; in assay [8], 3.39 µM; in assay [9] it was 3.82 µM.

As to `Cc1nn(-c2ccccc2)c(-c2ccccc2[N+](=O)[O-])c1CC#N`, the TGI in [1], in assay [2], in assay [10], in assay [4], in assay [5] and in assay [6] was greater than 100 µM in each case. In addition, the TGI in [8] and in [9] was greater than 100 µM throughout.

For the molecule `NC(=O)c1ccc(C2C3=C(CCCC3=O)OC3=C2C(=O)c2ccccc2C3=O)cc1` (stereo not drawn), the GI50 in [1] is 1.04 µM; in assay [2] it was 1.9 µM; in assay [10], 0.351 µM; in [3], 1.77 µM; in assay [5] it was 1.53 µM; in [6], 0.307 µM. The GI50 in assay [7] is 0.383 µM; in assay [8], 1.82 µM; in assay [9], 0.232 µM. Further, the TGI stood at 2.33 µM in assay [1]; 3.67 µM in assay [2]; 1.41 µM in assay [10]; 5.58 µM in assay [3]; 3.18 µM in [5]; 1.03 µM in assay [6]. Moreover, the TGI worked out at 1.72 µM in [7], 3.22 µM in assay [8] and 1.26 µM in [9].

On to `Cc1cc(=O)oc2cc(O)c(CN(C)CC(=O)O)cc12`, for which the TGI in [1], in assay [2], in assay [10], in assay [3], in [4] and in assay [6] was greater than 100 µM each time. Moreover, the TGI in [7], in [8] and in assay [9] was greater than 100 µM each time.

On to `COc1cc(Br)c(C=Nc2cccc3ccc(OS(=O)(=O)c4cccc([N+](=O)[O-])c4)cc23)cc1OC`, for which the TGI in assay [1] was greater than 100 µM; in assay [2] it was greater than 100 µM; in assay [10], greater than 100 µM; in assay [3], greater than 100 µM; in [4] it was 86.5 µM; in [5] it was 60.4 µM. For the same molecule, the values for the TGI in assay [6], in [7] and in [9] were 39.5 µM, greater than 100 µM and greater than 100 µM, respectively.

As to `O=C1C2Cc3ccccc3CN2C(=O)N1CCN1CCCC1` (stereo not drawn), the TGI in assay [1], in assay [2], in assay [10], in assay [4], in assay [5] and in assay [6] was greater than 100 µM throughout. Also, the TGI in [7] and in assay [8] was greater than 100 µM throughout.

For the molecule `O=[N+]([O-])c1ccc2c(c1)[O][Sn]([I])([I])[O]2`, the GI50 in assay [1], in [2], in [3], in assay [4], in [5] and in assay [6] was greater than 100 µM each time. Moreover, the GI50 in [7], in assay [8] and in [9] was greater than 100 µM each time. The TGI in [1], in assay [2], in assay [3], in [4], in assay [5] and in [6] was greater than 100 µM in each case. Further, the TGI in [7], in assay [8] and in assay [9] was greater than 100 µM throughout.

As for `CCOC(=O)COS(=O)(=O)C(F)(F)F`, the TGI in assay [1], in assay [2], in [10], in assay [3], in [4] and in [5] was greater than 100 µM throughout. The TGI in assay [6], in [8] and in [9] was greater than 100 µM throughout.

The values are drawn from PubChem BioAssay (NCI).
